According to US10759790B2, “Heterocyclic constrained tricyclic sulfonamides as anti-cancer agents” (ICAHN SCHOOL OF MEDICINE AT MOUNT SINAI, priority 2015, dated 2020):
Like-named read-outs stand apart in the source and are kept apart here.

Test system: H1650 lung cancer cells
Test: Cell viability assay (MTT, IC50 determination)
Assay type: cell-based
Details: Homo sapiens, read-out: H1650 cell viability IC50
Description: Cell viability assays were performed according to Denizot, F. and R. Lang, Journal of Immunological Methods, 1986. 89(22): p. 271-277. H1650 lung cancer cells were plated at 150,000 cells per well in a 12 well plate. Twenty-four hours after plating, cells were treated as described with increasing concentrations of drug and control. Forty-eight hours after drug treatment, cells were treated with 100 μL of 3-(4,5-Dimethylthiazol-2-yl)-2,5-diphenyltetrazolium bromide (MTT) and incubated for 2 hours at 37 C. The MTT solution was subsequently replaced with 300 μL of n-propyl alcohol and re-aliquoted to a 96 well plate. Spectrophotometric analysis of each solution was performed using a 96 well plate reader at 600 nm in triplicate.

[1] = NCI-H1650, H1650 lung cancer cells, MTT, 48 hours after drug treatment

Structure (SMILES) | IC50 [1] [µM] | IC50 (NCI-H1650, 48 h) [µM]
O=S(=O)(N[C@@H]1COCC(n2c3ccccc3c3ccccc32)[C@H]1O)c1ccc(OC(F)(F)F)cc1 (mixture of isomers) [Example 1, Rac-N-(3R,4R,5S)-5-(9H-carbazol-9-yl)-4-hydroxytetrahydro-2H-pyran-3-yl)-4-(trifluoromethoxy)benzenesulfonamide] | 15 | –
CC(C)(C)OC(=O)N1CC(N2c3ccccc3Oc3ccccc32)[C@@H](O)[C@H](NS(=O)(=O)c2ccc(OC(F)(F)F)cc2)C1 (mixture of isomers) [Example 16, Rac-(3S,4R,5R)-tert-butyl 4-hydroxy-3-(10H-phenoxazin-10-yl)-5-(4-(trifluoromethoxy)phenylsulfonamido)piperidine-1-carboxylate] | 10 | –
O=S(=O)(N[C@@H]1CNCC(N2c3ccccc3Oc3ccccc32)[C@H]1O)c1ccc(OC(F)(F)F)cc1 (mixture of isomers) [Example 17, Rac-N-((3R,4R,5S)-4-hydroxy-5-(10H-phenoxazin-10-yl)piperidin-3-yl)-4-(trifluoromethoxy)benzenesulfonamide] | 5 | –
CC(=O)N1CC(NS(=O)(=O)c2ccc(OC(F)(F)F)cc2)[C@H](O)C(N2c3ccccc3Oc3ccccc32)C1 (mixture of isomers) [Example 18, Rac-N-((3R,4R,5S)-1-acetyl-4-hydroxy-5-(10H-phenoxazin-10-yl)piperidin-3-yl)-4-(trifluoromethoxy)benzenesulfonamide] | 20 | –
O=S(=O)(N[C@@H]1COCC(N2c3ccccc3Oc3ccccc32)[C@H]1O)c1ccc(OC(F)(F)F)cc1 (relative stereo) [Example 2, N-(4-hydroxy-5-(10H-phenoxazin-10-yl)tetrahydro-2H-pyran-3-yl)-4-(trifluoromethoxy)benzenesulfonamide] | 15 | –
O=S(=O)(N[C@H]1COC[C@@H](N2c3ccccc3Oc3ccccc32)[C@@H]1O)c1ccc(OC(F)(F)F)cc1 [Example 2b, N-((3S,4S,5R)-4-hydroxy-5-(10H-phenoxazin-10-yl)tetrahydro-2H-pyran-3-yl)-4-(trifluoromethoxy)benzenesulfonamide] | 15 | –
O=S(=O)(N[C@@H]1COC[C@H](n2c3ccc(F)cc3c3cc(F)ccc32)[C@H]1O)c1ccc(OC(F)(F)F)cc1 [Example 3, N-((3R,4R,5S)-5-(3,6-difluoro-9H-carbazol-9-yl)-4-hydroxytetrahydro-2H-pyran-3-yl)-4-(trifluoromethoxy)benzenesulfonamide] | 10 | –
O=S(=O)(N[C@@H]1COC[C@H](n2c3ccccc3c3cc(F)ccc32)[C@H]1O)c1ccc(OC(F)(F)F)cc1 [Example 4, N-((3R,4R,5S)-5-(3-fluoro-9H-carbazol-9-yl)-4-hydroxytetrahydro-2H-pyran-3-yl)-4-(trifluoromethoxy)benzenesulfonamide] | 15 | –
O=S(=O)(N[C@@H]1COC[C@H](n2c3ccc(Cl)cc3c3cc(Cl)ccc32)[C@H]1O)c1ccc(OC(F)(F)F)cc1 [Example 5, N-((3R,4R,5S)-5-(3,6-dichloro-9H-carbazol-9-yl)-4-hydroxytetrahydro-2H-pyran-3-yl)-4-(trifluoromethoxy)benzenesulfonamide] | 5 | –
[N-]=[N+]=Nc1ccc(S(=O)(=O)N[C@@H]2COC[C@H](N3c4ccccc4Oc4ccccc43)[C@H]2O)cc1 [Example 6] | – | 25
O=S(=O)(N[C@@H]1COC[C@H](N2c3ccccc3Oc3ccc(F)cc32)[C@H]1O)c1ccc(OC(F)(F)F)cc1 [Example 7, N-((3R,4R,5S)-5-(2-fluoro-10H-phenoxazin-10-yl)-4-hydroxytetrahydro-2H-pyran-3-yl)-4-(trifluoromethoxy)benzenesulfonamide] | 15 | –
O=S(=O)(N[C@@H]1COC[C@H](N2c3ccccc3Oc3ccc(C(F)(F)F)cc32)[C@H]1O)c1ccc(OC(F)(F)F)cc1 [Example 8, N-((3R,4R,5S)-4-hydroxy-5-(2-(trifluoromethyl)-10H-phenoxazin-10-yl)tetrahydro-2H-pyran-3-yl)-4-(trifluoromethoxy)benzenesulfonamide] | 10 | –
O=S(=O)(N[C@@H]1COC[C@H](N2c3ccccc3Oc3cc(F)ccc32)[C@H]1O)c1ccc(OC(F)(F)F)cc1 [Example 11, N-((3R,4R,5S)-5-(3-fluoro-10H-phenoxazin-10-yl)-4-hydroxytetrahydro-2H-pyran-3-yl)-4-(trifluoromethoxy)benzenesulfonamide] | 10 | –
O=S(=O)(N[C@@H]1COC[C@H](N2c3ccc(Cl)cc3Oc3cc(Cl)ccc32)[C@H]1O)c1ccc(OC(F)(F)F)cc1 [Example 12, N-((3R,4R,5S)-5-(3,7-dichloro-10H-phenoxazin-10-yl)-4-hydroxytetrahydro-2H-pyran-3-yl)-4-(trifluoromethoxy)benzenesulfonamide] | 10 | –
O=S(=O)(N[C@@H]1COC[C@H](N2c3ccccc3Oc3cc(Cl)ccc32)[C@H]1O)c1ccc(OC(F)(F)F)cc1 [Example 13, N-((3R,4R,5S)-5-(3-chloro-10H-phenoxazin-10-yl)-4-hydroxytetrahydro-2H-pyran-3-yl)-4-(trifluoromethoxy)benzenesulfonamide] | 5 | –
O=S(=O)(N[C@@H]1COC[C@H](N2c3ccc(C(F)(F)F)cc3Oc3cc(C(F)(F)F)ccc32)[C@H]1O)c1ccc(OC(F)(F)F)cc1 [Example 14, N-((3R,4R,5S)-5-(3,7-bis(trifluoromethyl)-10H-phenoxazin-10-yl)-4-hydroxytetrahydro-2H-pyran-3-yl)-4-(trifluoromethoxy)benzenesulfonamide] | 5 | –
O=S(=O)(N[C@@H]1COC[C@H](N2c3ccccc3Oc3cc(C(F)(F)F)ccc32)[C@H]1O)c1ccc(OC(F)(F)F)cc1 [Example 15, N-((3R,4R,5S)-4-hydroxy-5-(3-(trifluoromethyl)-10H-phenoxazin-10-yl)tetrahydro-2H-pyran-3-yl)-4-(trifluoromethoxy)benzenesulfonamide] | 5 | –
CC(=O)N1C[C@@H](NS(=O)(=O)c2ccc(OC(F)(F)F)cc2)[C@H](O)[C@@H](N2c3ccccc3Oc3ccccc32)C1 [Example 18a, N-((3R,4R,5S)-1-acetyl-4-hydroxy-5-(10H-phenoxazin-10-yl)piperidin-3-yl)-4-(trifluoromethoxy)benzenesulfonamide] | – | 25
CC(=O)N1C[C@H](NS(=O)(=O)c2ccc(OC(F)(F)F)cc2)[C@@H](O)[C@H](N2c3ccccc3Oc3ccccc32)C1 [Example 18b, N-((3S,4S,5R)-1-acetyl-4-hydroxy-5-(10H-phenoxazin-10-yl)piperidin-3-yl)-4-(trifluoromethoxy)benzenesulfonamide] | – | 15
COC(=O)N1C[C@@H](NS(=O)(=O)c2ccc(OC(F)(F)F)cc2)[C@H](O)[C@@H](N2c3ccccc3Oc3ccccc32)C1 [Example 20a, (3S,4R,5R)-methyl 4-hydroxy-3-(10H-phenoxazin-10-yl)-5-(4-(trifluoromethoxy)phenylsulfonamido)piperidine-1-carboxylate] | – | 15
COC(=O)N1C[C@H](NS(=O)(=O)c2ccc(OC(F)(F)F)cc2)[C@@H](O)[C@H](N2c3ccccc3Oc3ccccc32)C1 [Example 20b, (3R,4S,5S)-methyl 4-hydroxy-3-(10H-phenoxazin-10-yl)-5-(4-(trifluoromethoxy)phenylsulfonamido)piperidine-1-carboxylate] | – | 5
O=S(=O)(N[C@@H]1CNC[C@H](n2c3ccc(Cl)cc3c3cc(Cl)ccc32)[C@H]1O)c1ccc(OC(F)(F)F)cc1 [Example 44] | 10 | –

The next lines start with results.

IC50 [1] [µM] | Structure (SMILES) | IC50 (NCI-H1650, 48 h) [µM]
10 | CC(C)(C)OC(=O)N1C[C@@H](NS(=O)(=O)c2ccc(OC(F)(F)F)cc2)[C@H](O)[C@@H](N2c3ccccc3Oc3ccccc32)C1 [Example 16a, (3S,4R,5R)-tert-butyl 4-hydroxy-3-(10H-phenoxazin-10-yl)-5-(4-(trifluoromethoxy)phenylsulfonamido)piperidine-1-carboxylate] | –
10 | CC(C)(C)OC(=O)N1C[C@H](NS(=O)(=O)c2ccc(OC(F)(F)F)cc2)[C@@H](O)[C@H](N2c3ccccc3Oc3ccccc32)C1 [Example 16b, (3R,4S,5S)-tert-butyl 4-hydroxy-3-(10H-phenoxazin-10-yl)-5-(4-(trifluoromethoxy)phenylsulfonamido)piperidine-1-carboxylate] | –
15 | O=S(=O)(N[C@@H]1CNC[C@H](N2c3ccccc3Oc3ccccc32)[C@H]1O)c1ccc(OC(F)(F)F)cc1 [Example 17a, N-((3R,4R,5S)-4-hydroxy-5-(10H-phenoxazin-10-yl)piperidin-3-yl)-4-(trifluoromethoxy)benzenesulfonamide] | –
25 | CN1C[C@@H](NS(=O)(=O)c2ccc(OC(F)(F)F)cc2)[C@H](O)[C@@H](N2c3ccccc3Oc3ccccc32)C1 [Example 19a] | –
15 | CN1C[C@H](NS(=O)(=O)c2ccc(OC(F)(F)F)cc2)[C@@H](O)[C@H](N2c3ccccc3Oc3ccccc32)C1 [Example 19b, N-((3S,4S,5R)-4-hydroxy-1-methyl-5-(10H-phenoxazin-10-yl)piperidin-3-yl)-4-(trifluoromethoxy)benzenesulfonamide] | –
10 | O=S(=O)(N[C@@H]1CNC[C@H](n2c3ccccc3c3ccccc32)[C@H]1O)c1ccc(OC(F)(F)F)cc1 [Example 41a, N-((3R,4R,5S)-5-(9H-carbazol-9-yl)-4-hydroxypiperidin-3-yl)-4-(trifluoromethoxy)benzenesulfonamide] | –
10 | O=S(=O)(N[C@H]1CNC[C@@H](n2c3ccccc3c3ccccc32)[C@@H]1O)c1ccc(OC(F)(F)F)cc1 [Example 41b, N-((3S,4S,5R)-5-(9H-carbazol-9-yl)-4-hydroxypiperidin-3-yl)-4-(trifluoromethoxy)benzenesulfonamide] | –
